Source: patent US20050245399A1, “Pyrazole derivatives as herbicidal compositions containing them” (ISHIHARA SANGYO KAISHA, LTD., priority 2004, published 2005)

Assays:
Type in all cases: in vivo
[1] = system: barnyardgrass (Echinochloa crus-galli L.): ECHCG; test: Test Example 1 pre-emergence herbicidal activity, ECHCG; details: Rate 63 g a.i./ha, visually observed 20th to 23rd day after application
Method in brief: (§1)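 Pots of upland soil were sown, and one day later WP or EC formulations at set active-ingredient rates were sprayed pre-emergence in 500 L/ha water. Growth control scored visually 20–23 days after application, 0 (as untreated) to 100 (complete kill).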

[2] = system: crabgrass (Digitaria sanguinalis L.): DIGSA; test: Test Example 1 pre-emergence herbicidal activity, DIGSA; details: Rate 63 g a.i./ha, visually observed 20th to 23rd day after application
Method in brief: as §1

[3] = system: green foxtail (Setaria viridis L.): SETVI; test: Test Example 1 pre-emergence herbicidal activity, SETVI; details: Rate 63 g a.i./ha, visually observed 20th to 23rd day after application
Method in brief: as §1

[4] = system: redroot pigweed (Amaranthus retroflexus L.): AMARE; test: Test Example 1 pre-emergence herbicidal activity, AMARE; details: Rate 63 g a.i./ha, visually observed 20th to 23rd day after application
Method in brief: as §1

[5] = system: prickly sida (Sida spinosa L.): SEDSP; test: Test Example 1 pre-emergence herbicidal activity, SIDSP; details: Rate 63 g a.i./ha, visually observed 20th to 23rd day after application
Method in brief: as §1

[6] = system: velvetleaf (Abutilon theophrasti): ABUTH; test: Test Example 1 pre-emergence herbicidal activity, ABUTH; details: Rate 63 g a.i./ha, visually observed 20th to 23rd day after application
Method in brief: as §1

[7] = system: rice (Oryza sativa L.): ORYSA; test: Test Example 1 pre-emergence herbicidal activity, ORYSA; details: Rate 63 g a.i./ha, visually observed 20th to 23rd day after application
Method in brief: as §1

[8] = system: wheat (Triticum aestivum L.): TRZAX; test: Test Example 1 pre-emergence herbicidal activity, TRZAX; details: Rate 63 g a.i./ha, visually observed 20th to 23rd day after application
Method in brief: as §1

[9] = system: corn (Zea mays L.): ZEAMX; test: Test Example 1 pre-emergence herbicidal activity, ZEAMX; details: Rate 63 g a.i./ha, visually observed 20th to 23rd day after application
Method in brief: as §1

[10] = system: soybean (Glycine max Merr.): GLXMA; test: Test Example 1 pre-emergence herbicidal activity, GLXMA; details: Rate 63 g a.i./ha, visually observed 20th to 23rd day after application
Method in brief: as §1

[11] = system: barnyardgrass (Echinochloa crus-galli L.), ECHCG; test: Test Example 2 post-emergence (foliage treatment) herbicidal activity, ECHCG
Method in brief: (§2)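 Plants grown in upland soil pots were sprayed on foliage at set leaf stages (ECHCG 1.1-2.1, DIGSA 1.0-2.0, AMARE 0.1-1.5, ORYSA 1.0-2). Formulated compound was applied at predetermined active-ingredient amounts in 500 L/ha water with 0.1% (v/v) spreader. Growth control (0–100%) was visually scored 20–23 days later.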

[12] = system: crabgrass (Digitaria sanguinalis L.), DIGSA; test: Test Example 2 post-emergence (foliage treatment) herbicidal activity, DIGSA
Method in brief: as §2

[13] = system: green foxtail (Setaria viridis L.), SETVI; test: Test Example 2 post-emergence (foliage treatment) herbicidal activity, SETVI
Method in brief: (§3)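 Foliar spray of formulated compound (500 L/ha dilution water, 0.1% v/v spreader) onto young potted plants at defined leaf stages. Scored 0-100% by visual inspection 20-23 d post-spray.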

[14] = system: redroot pigweed (Amaranthus retroflexus L.), AMARE; test: Test Example 2 post-emergence (foliage treatment) herbicidal activity, AMARE
Method in brief: as §2

[15] = system: prickly sida (Sida spinosa L.), SIDSP; test: Test Example 2 post-emergence (foliage treatment) herbicidal activity, SIDSP
Method in brief: as §3

[16] = system: velvetleaf (Abutilon theophrasti), ABUTH; test: Test Example 2 post-emergence (foliage treatment) herbicidal activity, ABUTH
Method in brief: as §3

[17] = system: rice (Oryza sativa L.), ORYSA; test: Test Example 2 post-emergence (foliage treatment) herbicidal activity, ORYSA
Method in brief: as §2

[18] = system: wheat (Triticum aestivum L.), TRZAX; test: Test Example 2 post-emergence (foliage treatment) herbicidal activity, TRZAX
Method in brief: as §3

[19] = system: corn (Zea mays L.), ZEAMX; test: Test Example 2 post-emergence (foliage treatment) herbicidal activity, ZEAMX
Method in brief: as §3

[20] = system: soybean (Glycine max Merr.), GLXMA; test: Test Example 2 post-emergence (foliage treatment) herbicidal activity, GLXMA
Method in brief: as §3

[21] = system: barnyardgrass (Echinochiloa oryzicola: ECHOR); test: Test Example 3 water application herbicidal activity (paddy), ECHOR; details: 63 g a.i./ha, water application under submerged condition at 0.5 leaf stage, visually observed 14th day after application; 0 = untreated control, 100 = complete kill
Method in brief: (§4)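 Flooded paddy-soil pots in greenhouse; ECHOR and SCPJO sown, SAGPY tubers planted a day later, compound applied into 3–4 cm water at weeds' 0.5-leaf stage. Rice transplanted at 2-leaf stage, treated day 4 after transplanting. Visual growth control 0–100% at 14 days (weeds) and 21 days (rice) after application.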

[22] = system: japanese bulrush (Scirpus juncoides: SCPJO); test: Test Example 3 water application herbicidal activity (paddy), SCPJO; details: 63 g a.i./ha, water application under submerged condition at 0.5 leaf stage, visually observed 14th day after application; 0 = untreated control, 100 = complete kill
Method in brief: as §4

[23] = system: japanese ribbon wapato (Sagittaria pygmaea: SA GPY); test: Test Example 3 water application herbicidal activity (paddy), SAGPY; details: 63 g a.i./ha, water application under submerged condition, tubers planted, visually observed 14th day after application; 0 = untreated control, 100 = complete kill
Method in brief: as §4

[24] = system: rice (Oryza sativa L.: ORYSA); test: Test Example 3 water application herbicidal activity (paddy), transplanted rice ORYSA; details: 63 g a.i./ha, water application 4th day after transplantation of 2 leaf stage rice, visually observed 21st day after application; 0 = untreated control, 100 = complete kill
Method in brief: as §4

| SMILES | Pre-emergence Herbicidal Activity ECHCG (growth controlling degree) [1] [%] | Pre-emergence Herbicidal Activity DIGSP (growth controlling degree) [2] [%] | Pre-emergence Herbicidal Activity SETVI (growth controlling degree) [3] [%] | Pre-emergence Herbicidal Activity AMARE (growth controlling degree) [4] [%] | Pre-emergence Herbicidal Activity SIDSP (growth controlling degree) [5] [%] | Pre-emergence Herbicidal Activity ABUTH (growth controlling degree) [6] [%] | Pre-emergence Herbicidal Activity ORYSA (growth controlling degree) [7] [%] | Pre-emergence Herbicidal Activity TRZAX (growth controlling degree) [8] [%] | Pre-emergence Herbicidal Activity ZEAMX (growth controlling degree) [9] [%] | Pre-emergence Herbicidal Activity GLXMA (growth controlling degree) [10] [%] | growth controlling degree, ECHCO ([11]; 63 g a.i./ha) [%] | growth controlling degree, DIGSP ([12]; 63 g a.i./ha) [%] | growth controlling degree, SETVI ([13]; 63 g a.i./ha) [%] | growth controlling degree, AMARE ([14]; 63 g a.i./ha) [%] | growth controlling degree, SIDSP ([15]; 63 g a.i./ha) [%] | growth controlling degree, ABUTH ([16]; 63 g a.i./ha) [%] | growth controlling degrees (%) ECHOR [21] [%] | growth controlling degrees (%) SCPJO [22] [%] | growth controlling degrees (%) SAGPY [23] [%] | growth controlling degrees (%) ORYSA [24] [%] | also measured |
| --- | --- | --- | --- | --- | --- | --- | --- | --- | --- | --- | --- | --- | --- | --- | --- | --- | --- | --- | --- | --- | --- |
| Cn1nc(-c2c(F)cc(Cl)c(OC(F)F)c2NC=O)c(Cl)c1OC(F)F [Compound 1-82] | 100 | 100 | 100 | 100 | 100 | 100 | 80 | 60 | 40 | 10 | 100 | 100 | 100 | 100 | 100 | 100 | 100 | 98 | 100 | 60 | growth controlling degree, ORYSA ([17]; 63 g a.i./ha): 70%; growth controlling degree, TRZAX ([18]; 63 g a.i./ha): 60%; growth controlling degree, ZEAMX ([19]; 63 g a.i./ha): 70%; growth controlling degree, GLXMA ([20]; 63 g a.i./ha): 90% |
| COc1c(Cl)cc(F)c(-c2nn(C)c(OC(F)F)c2Cl)c1NC(=O)c1ccccc1Cl [Compound 1-23] | 80 | 100 | 95 | 100 | 100 | 90 | 40 | 40 | 0 | 30 | 98 | 90 | 100 | 100 | 100 | 100 | 100 | 80 | 98 | 40 | growth controlling degree, ORYSA ([17]; 63 g a.i./ha): 90%; growth controlling degree, TRZAX ([18]; 63 g a.i./ha): 40%; growth controlling degree, ZEAMX ([19]; 63 g a.i./ha): 80%; growth controlling degree, GLXMA ([20]; 63 g a.i./ha): 98% |
| COc1c(Cl)cc(F)c(-c2nn(C)c(OC(F)F)c2Cl)c1NC(=O)CCc1ccccc1 [Compound 1-21] | 95 | 100 | 100 | 100 | 100 | 100 | 40 | 0 | 20 | 10 | – | – | – | – | – | – | 100 | 70 | 100 | 50 | growth controlling degree, ECHCO ([11]; 31 g a.i./ha): 80%; growth controlling degree, DIGSP ([12]; 31 g a.i./ha): 60%; growth controlling degree, SETVI ([13]; 31 g a.i./ha): 95%; growth controlling degree, AMARE ([14]; 31 g a.i./ha): 100%; growth controlling degree, SIDSP ([15]; 31 g a.i./ha): 100%; growth controlling degree, ABUTH ([16]; 31 g a.i./ha): 100%; growth controlling degree, ORYSA ([17]; 31 g a.i./ha): 90%; growth controlling degree, TRZAX ([18]; 31 g a.i./ha): 40%; growth controlling degree, ZEAMX ([19]; 31 g a.i./ha): 90%; growth controlling degree, GLXMA ([20]; 31 g a.i./ha): 70% |
